# Experiments:
# [1] = in vivo, cited from earlier work
# [2] = cited from earlier work
# [3] = Selection of mixed solvent (Table 4); type: physicochemical
smiles,measurement,setting,value
CC1(C)S[C@@H]2[C@H](NC(=O)[C@H](N)c3ccc(O)cc3)C(=O)N2[C@H]1C(=O)O [阿莫西林],gastrointestinal absorption rate,[1]; po,90%
same,half-life,[1],~1.02 h
same,stability under acidic conditions,[2],稳定
same,dissolution when amount of dimethyl sulfoxide is reduced,"[3]; 25 g amoxicillin, less than 100 ml dimethyl sulfoxide",不能完全溶解
same,volume of dimethyl sulfoxide required to dissolve 25 g amoxicillin as stable solution,[3]; from results of 2.2 and 2.3,100 mL

# From CN105663037A, “一种阿莫西林溶液剂及其制备方法和用途” (Chengdu Qiankun Veterinary Pharmaceutical Co Ltd, priority 2016, dated 2016)
